Structures can show the parent of a compound that is named as a salt. Where two headings read alike, the source gives them in different places.
Key:
[1] = system: Kv1.5; conditions: in Figure 2, no reference given, cited from earlier work
[2] = target: hKv1.5 potassium channel (Homo sapiens, UniProt P22460); experiment: Whole-cell patch clamp assay on HEK 293 cells stably expressing hKv1.5; conditions: hKv1.5 IC50, whole-cell patch clamp, HEK 293 cells expressing hKv1.5, 25 °C, mean ± SD
[3] = Single-dose pharmacokinetics study; type: in vivo; conditions: beagle dogs, mean ± SD, n = 6
[4] = system: SD rats; experiment: CaCl2-ACh induced AF model; type: in vivo, rat
[5] = system: guinea pigs; experiment: Preliminary safety evaluation by 12-lead electrocardiogram; type: in vivo
[6] = system: SD rats; type: in vivo, rat
[7] = both sexes, beagle, dog, plasma, iv, 1 mg/kg, i.v. 1.00 mg/kg
[8] = cumulative i.v. 3 × 10^−7 to 3 × 10^−5 mol/kg

Chain of hKv1.5 potassium channel (P22460 whole entry): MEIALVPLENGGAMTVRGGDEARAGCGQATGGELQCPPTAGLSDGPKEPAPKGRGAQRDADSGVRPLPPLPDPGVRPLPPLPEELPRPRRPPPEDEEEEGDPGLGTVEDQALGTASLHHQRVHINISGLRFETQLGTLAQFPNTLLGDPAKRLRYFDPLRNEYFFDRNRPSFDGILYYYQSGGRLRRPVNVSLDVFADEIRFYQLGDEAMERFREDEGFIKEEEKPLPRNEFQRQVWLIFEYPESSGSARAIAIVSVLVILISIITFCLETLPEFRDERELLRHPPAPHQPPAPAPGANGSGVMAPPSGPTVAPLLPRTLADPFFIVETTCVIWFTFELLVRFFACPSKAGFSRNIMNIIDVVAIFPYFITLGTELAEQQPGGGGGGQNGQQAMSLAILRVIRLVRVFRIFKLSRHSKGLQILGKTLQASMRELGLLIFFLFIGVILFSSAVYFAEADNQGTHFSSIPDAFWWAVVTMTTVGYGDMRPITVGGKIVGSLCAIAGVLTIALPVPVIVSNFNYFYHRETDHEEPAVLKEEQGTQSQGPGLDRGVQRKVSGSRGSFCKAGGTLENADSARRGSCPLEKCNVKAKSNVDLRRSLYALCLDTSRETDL

SMILES: COc1ccc(CC(=O)NCc2ccccc2-c2ccccc2C(=O)NCCc2cccnc2)cc1 [AVE-0118]
- IC50 ([1]; known Kv1.5 inhibitors): 1100 nM

SMILES: COc1ccc(NC(=O)C2CCN(Cc3ccccc3)CC2)cc1 [DDO-02001, 1-benzyl-N-(4-methoxyphenyl) piperidine-4-carboxamide]
- IC50 [2]: 17.7 µM

SMILES: COc1ccc(NC(=O)C2CCN(Cc3nc4ccccc4o3)CC2)cc1 [DDO-02002, 1-(benzo[d]oxazol-2-ylmethyl)-N-(4-methoxyphenyl) piperidine-4-carboxamide]
- IC50 [2]: 8.96 ± 1.15 µM
- melting point: 190 to 194 °C

SMILES: Cl.Cl.c1ccc(CNC2CCN(Cc3nc4ccccc4o3)CC2)cc1 [DDO-02004, 1-(benzo[d]oxazol-2-ylmethyl)-N-benzylpiperidin-4-amine dihydrochloride]
- IC50 [2]: 0.95 ± 0.13 µM
- melting point: > 250 °C

SMILES: COc1ccc(CNC2CCN(Cc3nc4ccccc4o3)CC2)cc1.Cl.Cl [DDO-02005, 1-(benzo[d]oxazol-2-ylmethyl)-N-(4-methoxybenzyl)piperidin-4-amine dihydrochloride]
- IC50 [2]: 0.72 ± 0.08 µM
- CL ([3]; i.v. 1.00 mg/kg, 1 mg/kg): 5.83 ± 1.44 L/h/kg
- CL ([3]; p.o. 1.25 mg/kg): 36.51 ± 2.54 L/h/kg
- Cmax ([3]; p.o. 1.25 mg/kg, 1.25 mg/kg): 1.27 ± 0.40 ng/mL
- t1/2 ([3]; p.o. 1.25 mg/kg, 1.25 mg/kg): 6.25 ± 2.40 h
- clearance [3, 7]: 97.2 mL/min/kg
- half-life [3, 7]: 194 ± 64.2 min
- Cmax ([3]; both sexes, beagle, dog, plasma, iv, 1 mg/kg, i.v. 1.00 mg/kg, read-out: Cmax): 90.2 ± 28.8 ng/mL
- half-life ([3]; both sexes, beagle, dog, plasma, po, 1.25 mg/kg, p.o. 1.25 mg/kg): 375 min
- Cmax ([3]; both sexes, beagle, dog, plasma, po, 1.25 mg/kg, p.o. 1.25 mg/kg, read-out: Cmax): 1.27 ng/mL
- AUC(0-t) ([3]; both sexes, dog, plasma, iv, i.v. 1.00 mg/kg): 178 ± 39.3 ng·h/mL
- AUC(0-t) ([3]; both sexes, dog, plasma, po, p.o. 1.25 mg/kg): 4.41 ± 0.69 ng·h/mL
- atrial ERP (AERP) ([4]; AF rats, 2.5 mg/kg i.p.): increased to normal level
- ventricle ERP (VERP) ([4]; AF rats, 2.5 mg/kg i.p.): increased to normal level
- duration of AF ([4]; rats, 0.625, 1.25, 2.5 mg/kg i.p., Day 4 to Day 7): shortened significantly
- AF therapeutic effect compared with dronedarone ([4]; rats, dronedarone 1.25 mg/kg i.p. as positive control): better than that of dronedarone
- overall preliminary safety compared with Azimilide ([5]; 12-lead electrocardiogram): safer than Azimilide
- effect on QT dispersion (QTd), compared with Azimilide [5, 8]: less effect
- effect on QTcd, compared with Azimilide [5, 8]: less effect
- heart rate of guinea pigs [5, 8]: slowed down obviously
- heart rate, compared with Azimilide [5, 8]: no statistically significant differences
- prolonging QT interval, compared with Azimilide [5, 8]: no statistically significant differences
- prolonging QTc interval, compared with Azimilide [5, 8]: no statistically significant differences
- increase of aconitine required to cause arrhythmia versus model group ([6]; 0.1 mg/kg i.v.): 2%
- increase of aconitine required to cause arrhythmia versus model group ([6]; 1 mg/kg i.v.): 53%
- increase of aconitine required to cause arrhythmia versus model group ([6]; 3 mg/kg i.v.): 56%
- increase of aconitine required to cause arrhythmia versus model group ([6]; 9 mg/kg i.v.): 60%

SMILES: Fc1ccc(CNC2CCN(Cc3nc4ccccc4o3)CC2)cc1 [DDO-02006, 1-(benzo[d]oxazol-2-ylmethyl)-N-(4-fluorobenzyl) piperidin-4-amine dihydrochloride]
- IC50 [2]: 3.24 ± 0.29 µM

SMILES: COc1ccccc1CNC1CCN(Cc2nc3ccccc3o2)CC1 [DDO-02007, 1-(benzo[d]oxazol-2-ylmethyl)-N-(2-methoxybenzyl)piperidin-4-amine dihydrochloride]
- IC50 [2]: > 20 µM

SMILES: Cc1ccc(CNC2CCN(Cc3nc4ccccc4o3)CC2)cc1 [DDO-02008, 1-(benzo[d]oxazol-2-ylmethyl)-N-(4-methylbenzyl)piperidin-4-amine dihydrochloride]
- IC50 [2]: > 20 µM

SMILES: c1ccc(CCNC2CCN(Cc3nc4ccccc4o3)CC2)cc1 [DDO-02009, 1-(benzo[d]oxazol-2-ylmethyl)-N-phenethylpiperidin-4-amine hydrochloride]
- IC50 [2]: > 20 µM

SMILES: CS(=O)(=O)Nc1cccc([C@H](c2ccc(F)cc2)C(c2cccnc2)c2cccnc2)n1 [MK-0448]
- IC50 ([1]; known Kv1.5 inhibitor): 10.8 nM

SMILES: Cc1ccc(S(=O)(=O)Nc2ccccc2C(=O)N(Cc2ccccc2)Cc2cccnc2)cc1 [S-0100176]
- IC50 ([1]; known Kv1.5 inhibitors): 700 nM

SMILES: COc1ccc(CCO[C@@H]2CCCC[C@H]2N2CC[C@@H](O)C2)cc1OC [Vernakalant hydrochloride]
- IC50 ([1]; known Kv1.5 inhibitors): 13000 nM

— paper PMC8757610, “Design, synthesis, and biological evaluation of arylmethylpiperidines as Kv1.5 potassium channel inhibitors” (Journal of Enzyme Inhibition and Medicinal Chemistry, 2022)
